The test system of assay [1] is sciatic nerve of diabetes-induced mouse. Kind of assay: Transmission speed of motor nerve and sensory nerve of sciatic nerve in diabetes-induced mouse. The assay is classed as in vivo, alloxan-induced diabetic ICR mice. As to conditions: diabetes-induced mice, 10 mg/kg p.o. three times per week. The method, then: The therapeutic effect of the compound according to the present invention on the diabetic neuropathy, one of the multiple neuropathies, was identified by measuring the effect of the compound according to the present invention on the transmission speed of the motor nerve and sensory nerve in the sciatic nerve.
7-week old male ICR mice underwent alimentary abstinence for 18 hours, and then alloxan dissolved in a physiological saline was once injected to them by intraperitoneal injection in an amount of 160 mg/kg to induce diabetes. Mice that maintained their fasting blood sugar to 200 mg/dl or more for one week, that is, diabetes-induced mice were selected and then divided into a control group (n=7), and a compound-administered group (n=7). The control group was administered with 0.2 ml of a solution of dimethylsulfoxide:ethanol (3:1), and the compound-administered group was administered with the compound of Formula 2 dissolved in a solution of dimethylsulfoxide:ethanol (3:1) in an amount of 10 mg/kg. 7-week old male ICR mice in which diabetes was not induced were grouped as a normal group (n=7), and the normal group was administered with 0.2 ml of a solution of dimethylsulfoxide:ethanol (3:1). […] Administration-completed mice were sacrificed by cervical dislocation, and then the skin and muscle in the femoral region were quickly removed. Then, left and right sciatic nerves were respectively separated in a length of 20 mm or more and stored in a physiological saline while air flows through the physiological saline. The separated sciatic nerves were placed on a 20 mm round measurement plate. Then, a sensor and a stimulating probe were connected to respective neuroterminals and the electrical conductivity was measured using a digital storage oscilloscope to assess the nerve transmission speed (see FIGS. 5 and 6.)
In general, the myelin is a phospholipid membrane surrounding axons with several layers, and also called as myelin sheath. […]

The subject of another assay is PC 12 cell. Kind of assay: Measurement of neurite outgrowth. The assay is classed as cell-based. To be noted: PC12 cells, neurite length measured after 48 hours, vs ethanol control. How it is done:
In an incubator with conditions including 5% CO2 and a temperature of 37° C., PC 12 cell (pheochromocytoma, ATCC Number: CRL-1721) was cultured in a RPMI 1640 medium supplemented with horse serum (10%, v/v), fetal bovine serum (5%, v/v), and 1% penicillin-streptomycin
In order to find the effect of the compound of Formula 2 on the neurite outgrowth, the mediums supplemented with 2% horse serum, 1% fetal bovine serum, and 1% penicillin-streptomycin were added to each 6-well plate coated with poly-d-lysine and then the PC12 cells were inoculated in 5×10^4 cells each well. After 24 hours, these wells were treated with 10 □/ml of ethanol, 10 □/□ of the compound of Formula 2, and 50 ng/□ of a nerve growth factor (R&D system, USA), respectively. Then, after 48 hours, the length of the neurite was measured using an inverted image contrast microscope (CK-2, Olympus, USA) (See FIG. 1 and FIG. 2)

Assay [2] relates to endogenous nerve growth factor. Nature of the assay: Level of nerve growth factor in serum of diabetes-induced mouse (ELISA). The assay is classed as in vivo, alloxan-induced diabetic ICR mice. As to conditions: diabetes-induced mice, compound 10 mg/kg p.o., three times per week, one month. The method, then: An alloxan-induced diabetic mouse was prepared as an animal model having diabetic neuropathy, one of the multiple neuropathies.
7-week old male ICR mice underwent alimentary abstinence for 18 hours, and then alloxan dissolved in a physiological saline was once injected to them by intraperitoneal injection in an amount of 160 mg/kg to induce diabetes. Mice that maintained their fasting blood sugar to 200 mg/dl or more for one week, that is, diabetes-induced mice were selected and then divided into a control group (n=10), an extract-administered group (n=10), and a compound-administered group (n=10). The control group was administered with 0.2 ml of a solution of dimethylsulfoxide:ethanol (3:1), the extract-administered group was administered with the extract obtained according to Example 1 dissolved in a solution of dimethylsulfoxide:ethanol (3:1) in an amount of 100 mg/kg, and the compound-administered group was administered with the compound of Formula 2 dissolved in a solution of dimethylsulfoxide:ethanol (3:1) in an amount of 10 mg/kg. The all groups were orally administered three times per one week, and the entire administration period was one month. The amount of an endogenous nerve growth factor in the serum was measured by ELISA. […]
In general terms: In an ELISA, binding on a coated surface is turned into a signal by an enzyme label.

Assay [3] concerns sciatic nerve of diabetes-induced mouse. Nature of the assay: Histological comparison of sciatic nerve of diabetes-induced mouse. In kind it is in vivo, alloxan-induced diabetic ICR mice. As to conditions: diabetes-induced mice, compound 10 mg/kg p.o. three times per week, 2 months; toluidine blue, 600x/1200x. The method, then:
The therapeutic effect of the compound according to the present invention on the neuropathy was identified by measuring a histological change of the sciatic nerve.
7-week old male ICR mice underwent alimentary abstinence for 18 hours, and then alloxan dissolved in a physiological saline was once injected to them by intraperitoneal injection in an amount of 160 mg/kg to induce diabetes. Mice that maintained their fasting blood sugar to 200 mg/dl or more for one week, that is, diabetes-induced mice were selected and then divided into a control group (n=5), an extract-administered group (n=5), and a compound-administered group (n=3). The control group was […] with 0.2 ml of a solution of dimethylsulfoxide:ethanol (3:1), the extract-administered group was administered with the extract obtained according to Example 1 dissolved in a solution of dimethylsulfoxide:ethanol (3:1) in an amount of 100 mg/kg, and the compound-administered group was administered with the compound of Formula 2 dissolved in a solution of dimethylsulfoxide:ethanol (3:1) in an amount of 10 mg/kg. All groups were treated three times by oral administration per one week, and the entire administration period was 2 months. […]

Assay [4] has as its system sorbitol in the sciatic nerve. Nature of the assay: Change in amount of sorbitol in sciatic nerve of diabetes-induced mouse (HPLC). As to conditions: diabetes-induced mice, 10 mg/kg p.o. three times per week, 2 weeks. In kind it is in vivo, alloxan-induced diabetic ICR mice. The method, then:
The therapeutic effect of the compound according to the present invention on the neuropathy was identified by measuring a change in the amount of sorbitol in the sciatic nerve.
7-week old male ICR mice underwent alimentary abstinence for 18 hours, and then alloxan dissolved in a physiological saline was once injected to them by intraperitoneal injection in an amount of 160 mg/kg to induce diabetes. Mice that maintained their fasting blood sugar to 200 mg/dl or more for one week, that is, diabetes-induced mice were selected and then divided into a control group (n=3), and a compound-administered group (n=3). The control group was administered with 0.2 ml of a solution of dimethylsulfoxide:ethanol (3:1), and the compound-administered group was administered with the compound of Formula 2 dissolved in a solution of dimethylsulfoxide:ethanol (3:1) in an amount of 10 mg/kg. 7-week old male ICR mice in which diabetes was not induced were grouped as a normal group (n=3), and the normal group was administered with 0.2 ml of a solution of dimethylsulfoxide:ethanol (3:1). […] Administration-completed mice were sacrificed by cervical dislocation, and then the amount of the sorbitol in the sciatic nerve was measured by HPLC (see FIG. 8). […]

In assay [5] the test system is endogenous nerve growth factor. Nature of the assay: Level of nerve growth factor in sciatic nerve of diabetes-induced mouse (ELISA). In kind it is in vivo, alloxan-induced diabetic ICR mice. As to conditions: diabetes-induced mice, 10 mg/kg P.O three times per week, one month. How it is done:
7-week old male ICR mice underwent alimentary abstinence for 18 hours, and then alloxan dissolved in a physiological saline was once injected to them by intraperitoneal injection in an amount of 160 mg/kg to induce diabetes. Mice that maintained their fasting blood sugar to 200 mg/dl or more for one week, that is, diabetes-induced mice were selected and then divided into a control group (n=5), and a compound-administered group (n=5). The control group was administered with 0.2 ml of a solution of dimethylsulfoxide:ethanol (3:1), and the compound-administered group was administered with the compound of Formula 2 dissolved in a solution of dimethylsulfoxide:ethanol (3:1) in an amount of 10 mg/kg. The all groups were orally administered three times per one week, and the entire administration period was one month. The amount of an endogenous nerve growth factor in the sciatic nerve was measured by ELISA (see FIG. 7)
Accordingly, it is considered that the results shown in FIGS. 5 and 6 result from the nerve protecting function of the nerve growth factor.

In assay [6] the test system is endogenous nerve growth factor. Nature of the assay: Level of nerve growth factor in mouse serum (ELISA). The assay is classed as in vivo. As to conditions: normal male ICR mice, 10 mg/kg orally once, after 24 hours. How it is done:
The compound of Formula 2 was dissolved in 0.2 ml of a solution of dimethyl-sulfoxide:ethanol (3:1), and then orally administered once to 7-week old male ICR mice (n=7) in an amount of 10 mg/kg. After 24 hours, the amount of an endogenous nerve growth factor was measured by ELISA. As a control group, an ICR mouse was orally administered once with 0.2 ml of the dimethylsulfoxide:ethanol (3:1). Then, the amount of a nerve growth factor in the control group was measured in the same manner as described above.

For `C[C@@H]1CC[C@@]2(OC1)O[C@H]1C[C@H]3[C@@H]4CC=C5C[C@@H](O)CC[C@]5(C)[C@H]4CC[C@]3(C)[C@H]1[C@@H]2C` [compound of Formula 2, 3beta, 25R-spirost-5-en-3-ol], the “transmission speed of the sensory nerve, higher than diabetes-induced control group” value in assay [1] (one month) is 25%. Besides, in assay [1] (two months), the “transmission speed of the motor nerve, higher than control group” value worked out at 40% and the “transmission speed of the sensory nerve, higher than control group” value is on record as 45%. In addition, in the assay with PC 12 cell (10 □/□ of the compound), the neurite outgrowth result is “neurite outgrowth was induced”. Besides, the “endogenous nerve growth factor in the serum relative to vehicle control group” value in assay [2] is given as “four”. Moreover, in assay [3], the “histology of axon and myelin in the central part of the sciatic nerve” value is on record as “clearly observed”. For the same compound, in assay [4], the “sorbitol in the sciatic nerve, lower than diabetes-induced control group” value stood at 10%. For the same compound, the “nerve growth factor in the sciatic nerve, higher than vehicle control group” value in assay [5] is listed as “about 30%”. Further, the “nerve growth factor in the serum relative to control group” value in assay [6] was “about 2.5 times”.
For “nerve growth factor: nerve growth factor (R&D system, USA), positive control for neurite outgrowth [reference compound]”, in the assay with PC 12 cell (50 ng/□ of nerve growth factor), the neurite outgrowth entry is reported as “neurite outgrowth was induced”.

Source of the values: patent US8202554B2, “Extract of the family dioscoreaceae and composition for preventing or treating peripheral neuropathy comprising the same” (priority 2005, dated 2012).
